Test results published in PubChem BioAssay (NCI).
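Protocol summary: plate cells (96-well), add compound at 5 concentrations, incubate 48 h, interpolate endpoints linearly. GI50 is the concentration that inhibits growth by half. Definition used: TGI = concentration required for complete inhibition of growth.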

What was measured:
Experiment in all cases: inhibition of tumour cell growth, NCI panel, 48 h
[1] = test system: NCI-H23 lung
[2] = test system: NCI-H226 lung
[3] = test system: IGROV1 ovarian
[4] = test system: DU-145 prostate
[5] = test system: A498 renal
[6] = test system: T-47D breast
[7] = test system: RXF 393 renal
[8] = test system: BT-549 breast
[9] = test system: MALME-3M melanoma
[10] = test system: UO-31 renal
[11] = test system: TK-10 renal
[12] = test system: NCI/ADR-RES ovarian
[13] = test system: HL-60(TB) leukemia
[14] = test system: SNB-19 CNS
[15] = test system: UACC-62 melanoma
[16] = test system: KM12 colon
[17] = test system: HOP-92 NSCLC
[18] = test system: OVCAR-4 ovarian
[19] = test system: SK-OV-3 ovarian
[20] = test system: CCRF-CEM leukemia
[21] = test system: SW-620 colon
[22] = test system: LOX IMVI melanoma
[23] = test system: M14 melanoma
[24] = test system: HCT-116 colon
[25] = test system: OVCAR-5 ovarian
[26] = test system: SK-MEL-2 melanoma
[27] = test system: MDA-MB-231 breast
[28] = test system: SN12C renal
[29] = test system: HCC-2998 colon
[30] = test system: MDA-MB-435
[31] = test system: 786-0 renal
[32] = test system: HT29 colon
[33] = test system: SK-MEL-5 melanoma
[34] = test system: MOLT-4 leukemia
[35] = test system: SK-MEL-28 melanoma
[36] = test system: RPMI-8226 leukemia
[37] = test system: SF-539 CNS
[38] = test system: COLO 205 colon
[39] = test system: K-562 leukemia
[40] = test system: PC-3 prostate
[41] = test system: ACHN renal
[42] = test system: SF-268 CNS
[43] = test system: OVCAR-3 ovarian
[44] = test system: HCT-15 colon
[45] = test system: SF-295 CNS
[46] = test system: SNB-75 CNS
[47] = test system: SR leukemia
[48] = test system: MCF7 breast
[49] = test system: NCI-H460 lung
[50] = test system: EKVX NSCLC
[51] = test system: A549 NSCLC
[52] = test system: HOP-62 NSCLC
[53] = test system: NCI-H522 lung
[54] = test system: U251 CNS
[55] = test system: UACC-257 melanoma
[56] = test system: HS 578T breast
[57] = test system: CAKI-1 renal
[58] = test system: OVCAR-8 ovarian

CN1CCN(c2ccc(Nc3nc(NCCNS(=O)(=O)c4ccc5ccccc5c4)c4sccc4n3)cc2)CC1
GI50 [1]: 13.3 µM
TGI [1]: 26.9 µM
GI50 [2]: 14.2 µM
TGI [2]: 28.3 µM
GI50 [3]: 11 µM
TGI [3]: 23.4 µM
GI50 [4]: 12 µM
TGI [4]: 25 µM
GI50 [5]: 19.2 µM
TGI [5]: 34 µM
GI50 [6]: 3.71 µM
TGI [6]: 16.9 µM
GI50 [7]: 2.33 µM
TGI [7]: 6.58 µM
GI50 [8]: 12.4 µM
TGI [8]: 24.9 µM
GI50 [9]: 1.8 µM
TGI [9]: 3.28 µM
GI50 [10]: 12.4 µM
TGI [10]: 25.5 µM
GI50 [11]: 21.5 µM
TGI [11]: 37.3 µM
GI50 [12]: 14.8 µM
TGI [12]: 38.3 µM
GI50 [13]: 1.99 µM
TGI [13]: 4.04 µM
GI50 [14]: 16.3 µM
TGI [14]: 30 µM
GI50 [15]: 11.7 µM
TGI [15]: 24 µM
GI50 [16]: 16.2 µM
TGI [16]: 35.7 µM
GI50 [17]: 3.31 µM
TGI [17]: 16.1 µM
GI50 [18]: 10.3 µM
TGI [18]: 28.2 µM
GI50 [19]: 19.4 µM
TGI [19]: 35.6 µM
GI50 [20]: 3.52 µM
TGI [20]: 13.9 µM
GI50 [21]: 6.41 µM
TGI [21]: 21.8 µM
GI50 [22]: 1.75 µM
TGI [22]: 3.36 µM
GI50 [23]: 1.88 µM
TGI [23]: 3.4 µM
GI50 [24]: 2.21 µM
TGI [24]: 5.64 µM
GI50 [25]: 11.5 µM
TGI [25]: 23.7 µM
GI50 [26]: 19.6 µM
TGI [26]: 36.1 µM
GI50 [27]: 3.87 µM
TGI [27]: 14.8 µM
GI50 [28]: 13.1 µM
TGI [28]: 26.3 µM
GI50 [29]: 3.34 µM
TGI [29]: 12.5 µM
GI50 [30]: 3.34 µM
TGI [30]: 11.8 µM
GI50 [31]: 2.69 µM
TGI [31]: 8.16 µM
GI50 [32]: 3.31 µM
TGI [32]: 12.3 µM
GI50 [33]: 3.27 µM
TGI [33]: 11.3 µM
GI50 [34]: 4.55 µM
TGI [34]: 24.1 µM
GI50 [35]: 2.21 µM
TGI [35]: 5 µM
GI50 [36]: 2.46 µM
TGI [36]: 6.18 µM
GI50 [37]: 1.91 µM
TGI [37]: 4.05 µM
GI50 [38]: 2.22 µM
TGI [38]: 4.99 µM
GI50 [39]: 2.27 µM
TGI [39]: 7.15 µM
GI50 [40]: 11.4 µM
TGI [40]: 31.1 µM
GI50 [41]: 8.51 µM
TGI [41]: 20.7 µM
GI50 [42]: 11.5 µM
TGI [42]: 30.2 µM
GI50 [43]: 10.7 µM
TGI [43]: 28.1 µM
GI50 [44]: 2.31 µM
TGI [44]: 5.59 µM
GI50 [45]: 11.8 µM
TGI [45]: 24.1 µM
GI50 [46]: 11.6 µM
TGI [46]: 24.2 µM
GI50 [47]: 2.57 µM
TGI [47]: 7.42 µM
GI50 [48]: 4.04 µM
TGI [48]: 15.7 µM
GI50 [49]: 12.1 µM
TGI [49]: 27.2 µM
GI50 [50]: 13 µM
TGI [50]: 26.3 µM
GI50 [51]: 9.03 µM
TGI [51]: 26.8 µM
GI50 [52]: 15 µM
TGI [52]: 29.2 µM
GI50 [53]: 7.16 µM
TGI [53]: 21.6 µM
GI50 [54]: 3.21 µM
TGI [54]: 12 µM
GI50 [55]: 1.84 µM
TGI [55]: 3.56 µM
GI50 [56]: 14.1 µM
TGI [56]: 46.8 µM
GI50 [57]: 3.87 µM
TGI [57]: 15.2 µM
GI50 [58]: 6.65 µM
TGI [58]: 19.9 µM
